# In patent publication US12617777B2, “GPR84 antagonists and uses thereof” (Liminal BioSciences Limited, priority 2021, dated 2026):
# Key:
# [1] = test system: neutrophils; assay: Neutrophil migration assay (embelin as chemotactic agent, ATPlite readout); format: cell-based; details: for IC50: Neutrophil, human neutrophils, embelin as chemotactic agent, read-out: Human Neutrophil migration inhibition IC50; for Human Neutrophil migration inhibition - fold potency to Control Compound: normalized to GPR84 antagonist Control Compound (average IC50 131 nM)
# Description: Neutrophil migration assay. After isolation, neutrophils were resuspended in chemotaxis buffer (DMEM supplemented with 10 mM HEPES) at a concentration of 8.9×10^6 cells/ml. In a 96-well plate, 20 μl of compound solution in chemotaxis buffer is added to 180 μl of cell suspension. After incubation at 37° C. for 30 minutes, 75 μl of cell suspension is transferred in the upper chamber of a 5 μm pore size Corning HTS transwell. 235 μl of chemotaxis buffer containing the chemotactic agent (embelin) is added to the lower chamber of the transwell. After a 60-minute incubation time at 37° C. in 5%0 C02, the upper chamber of the transwell is removed and the plate is centrifuged at 1500 rpm for 6 minutes. Supermatant is removed and cells resuspended in 100 ul of PBS. ATP content was assessed using ATPlite Luminescence Assay System® according to manufacturer instructions (Perkin Elmer, Buckinghamshire, UK). Briefly, 50 μl of ATPlite buffer and 50 μl of lysis solution is added to the lower chamber of the Transwells. After incubation at room temperature, in the dark with constant agitation for 5 minutes, 150 μl of cell lysate is transferred in a 96 wells white plate and incubated for 10 minutes in the dark. Luminescence is read on a TECAN plate reader, Infinite M1000 (Tecan, Morrisville, NC).
# The compound numbers correspond to the compound numbers in Table 1. […] Normalization of the results takes the donor's variation into account.
# [2] = molecular target: T1, human GPR84 receptor (Homo sapiens, UniProt Q9NQS5); assay: Gαi biosensor BRET assay in HEK293 cells (antagonism of ZQ-16); format: cell-based; details: for inhibition at 10 µM: HEK293, single concentration 10 μM (designated F); for IC50: HEK293 cells, antagonism of 200 nmol/L ZQ-16; for inhibition at 2 µM: HEK293, single concentration 2 μM (designated A)
# T1 construct: host or cells: HEK293, transient transfection
# T1 sequence (Q9NQS5 whole entry): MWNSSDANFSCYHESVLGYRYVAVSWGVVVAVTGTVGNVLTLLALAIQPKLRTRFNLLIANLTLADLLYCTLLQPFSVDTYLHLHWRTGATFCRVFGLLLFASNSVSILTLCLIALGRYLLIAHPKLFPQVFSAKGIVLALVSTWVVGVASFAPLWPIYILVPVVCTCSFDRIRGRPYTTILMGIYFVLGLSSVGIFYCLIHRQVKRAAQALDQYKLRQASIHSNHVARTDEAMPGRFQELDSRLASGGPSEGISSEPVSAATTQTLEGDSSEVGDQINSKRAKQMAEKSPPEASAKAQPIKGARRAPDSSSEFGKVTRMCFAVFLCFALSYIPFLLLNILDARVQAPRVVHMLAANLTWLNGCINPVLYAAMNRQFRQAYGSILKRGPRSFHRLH
# Outline: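 Antagonist mode: test compound 5 min at 37° C, followed by ZQ-16 agonist (200 nmol/L, 5 min, room temperature), in HEK293 cells transfected with GPR84 plus Rluc8-tagged Gαi2, GFP10-Gγ2 and Gβ1. Readout as GFP10/Rluc8 emission ratio after 5 μmol/L coelenterazine 400A, net of Rluc8-only and vehicle signal.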
# [3] = test system: mouse dextran sodium sulfate-induced chronic inflammatory bowel disease model; details: once-daily doses of 3 and 10 mg/kg; efficacy similar to sulfasalazine; cited from earlier work
IC50 [1] [nM],inhibition at 10 µM [2] [%],IC50 [2] [nM],inhibition at 2 µM [2] [%],SMILES,Human Neutrophil migration inhibition - fold potency to Control Compound [1],disease activity index score [3],neutrophil infiltration [3]
≤ 300,> 75,1000 to 3000,,CC(C)c1cc(C#CCN2CC(C)(C)C2)cnc1-c1cn(CC2CCCCO2)nn1 (stereo not drawn) [Compound I-462],C (IC50≤0.5-fold relative to Control Compound),,
≤ 300,,300 to 1000,> 75,Cc1cc(N2CC(C)(CNc3ccccn3)C2)ccc1-c1cn(CC2CCCCO2)nn1 (stereo not drawn) [Compound I-464],C (IC50≤0.5-fold relative to Control Compound),,
≤ 300,> 75,≤ 300,,CC(C)Oc1cc(C#CC2CC2)cnc1-c1cn(CC2CCCCO2)nn1 (stereo not drawn) [Compound I-478],B (IC50 of >0.5-≤1.0-fold relative to Control Compound),,
≤ 300,,300 to 1000,50 to 75,CO[C@@H](c1cn(C[C@H]2CCCCO2)nn1)c1cc(C#CC2CC2)ccc1C [Compound I-510],B (IC50 of >0.5-≤1.0-fold relative to Control Compound),,
≤ 300,,≤ 300,> 75,CO[C@H](c1cn(C[C@H]2CCCCO2)nn1)c1cc(C#CC2CC2)ccc1C [Compound I-511],A (IC50 of >1.0-fold relative to Control Compound),,
≤ 300,,300 to 1000,> 75,CO[C@H](c1cn(C[C@@H]2CCCCO2)nn1)c1cc(C#CC2CC2)ccc1C [Compound I-512],C (IC50≤0.5-fold relative to Control Compound),,
≤ 300,> 75,≤ 300,,CCc1cc(C#CCNc2cccnc2)cnc1-c1cn(C[C@H]2CCCCO2)nn1 [Compound I-535],B (IC50 of >0.5-≤1.0-fold relative to Control Compound),,
≤ 300,25 to 50,300 to 1000,,Cc1cc(N2CC(C)(N(C)Cc3ccccc3)C2)ccc1-c1cn(CC2CCCCO2)nn1 (stereo not drawn) [Compound I-553],B (IC50 of >0.5-≤1.0-fold relative to Control Compound),,
≤ 300,> 75,300 to 1000,,CCc1cc(C#CCNC(=O)OC(C)(C)C)ccc1-c1cn(CC2CCCCO2)nn1 (stereo not drawn) [Compound I-572],A (IC50 of >1.0-fold relative to Control Compound),,
≤ 300,> 75,300 to 1000,,Cc1cc(N2CCN([C@@H](C)c3ccccn3)CC2)ccc1-c1cn(C[C@H]2CCCCO2)nn1 [Compound I-612],A (IC50 of >1.0-fold relative to Control Compound),,
≤ 300,,300 to 1000,> 75,Cc1ccc(C#CC2CC2)cc1C(OC1CC1)c1cn(CC2OCC(C)(C)CO2)nn1 (stereo not drawn) [Compound I-644],A (IC50 of >1.0-fold relative to Control Compound),,
≤ 300,,≤ 300,> 75,CC(C)Oc1cc(C#CC2CC2)cnc1-c1cn(CC2OCC(C)(C)CO2)nn1 [Compound I-651],A (IC50 of >1.0-fold relative to Control Compound),,

# The remaining lines, values behind:
SMILES,IC50 [1] [nM],inhibition at 10 µM [2] [%],IC50 [2] [nM],inhibition at 2 µM [2] [%],Human Neutrophil migration inhibition - fold potency to Control Compound [1],disease activity index score [3],neutrophil infiltration [3]
CN(C)c1cc(C#CCNc2ccccc2)ccc1-c1cn(CC2CC(C)(C)CO2)nn1 (stereo not drawn) [Compound I-460],≤ 300,> 75,300 to 1000,,A (IC50 of >1.0-fold relative to Control Compound),,
CCc1cc(C#CCNc2ccccc2)cnc1-c1cn(CC2CC(C)(C)CO2)nn1 (stereo not drawn) [Compound I-474],≤ 300,,300 to 1000,> 75,A (IC50 of >1.0-fold relative to Control Compound),,
CN(C)c1cc(N2CC(C)(CO)C2)ccc1-c1cn(CC2CC(C)(C)CO2)nn1 (stereo not drawn) [Compound I-499],≤ 300,> 75,300 to 1000,,A (IC50 of >1.0-fold relative to Control Compound),,
Cc1cc(N2CCN(Cc3ccccn3)CC2)ccc1-c1cn(CC2CC(C)(C)CO2)nn1 (stereo not drawn) [Compound I-530],≤ 300,> 75,≤ 300,,A (IC50 of >1.0-fold relative to Control Compound),,
Cc1cc(N2CCN(Cc3ccccn3)CC2)ccc1-c1cn(CC2OCC(C)(C)CO2)nn1 [Compound I-531],≤ 300,> 75,≤ 300,,A (IC50 of >1.0-fold relative to Control Compound),,
Cc1cc(N2CCN(Cc3ccccn3)CC2)ccc1-c1cn(CC2CCC(C)(C)CO2)nn1 (stereo not drawn) [Compound I-562],≤ 300,> 75,≤ 300,,A (IC50 of >1.0-fold relative to Control Compound),,
CN(C)c1cc(N2CC(C)(C)C2)ccc1-c1cn(CC2OCC(C)(C)CO2)nn1 [Compound I-585],≤ 300,> 75,≤ 300,,A (IC50 of >1.0-fold relative to Control Compound),,
Cc1cc(C#CCN2CC(C)(C)C2)cnc1-c1cn(CC2OCC(C)(C)CO2)nn1 [Compound I-596],≤ 300,> 75,300 to 1000,,A (IC50 of >1.0-fold relative to Control Compound),,
CCc1cc(N2CC(C)(C)C2)ccc1-c1cn(CC2OCC(C)(C)CO2)nn1 [Compound I-618],≤ 300,> 75,≤ 300,,A (IC50 of >1.0-fold relative to Control Compound),,
CCc1cc(C#CCO)ccc1-c1cn(CC2OCC(C)(C)CO2)nn1 [Compound I-620],≤ 300,> 75,≤ 300,,A (IC50 of >1.0-fold relative to Control Compound),,
Cc1cc(C#CCN2CC(C)(C)C2)ccc1-c1cn(CC2OCC(C)(C)CO2)nn1 [Compound I-634],≤ 300,> 75,≤ 300,,A (IC50 of >1.0-fold relative to Control Compound),,
Cc1cc(N2CCN(Cc3ccccn3)CC2)ccc1-c1cn(CC2OCC3(CC3)CO2)nn1 [Compound I-637],≤ 300,,300 to 1000,> 75,A (IC50 of >1.0-fold relative to Control Compound),,
CC(C)Oc1cc(C#CC2CC(F)(F)C2)cnc1-c1cn(CC2OCC(C)(C)CO2)nn1 [Compound I-650],≤ 300,,300 to 1000,> 75,A (IC50 of >1.0-fold relative to Control Compound),,
O=c1nc(OC[C@@H]2COCCO2)cc2n1CCc1cc(C#CC3CC3)ccc1-2 [GLPG1205],,,,,,reduced,reduced
